From patent US20030124554A1, “Screening method for compounds capable of modularing egr-1-regulated expression” (priority 2002, published 2003)

System: human cell co-culture system
Assay: In vitro angiogenesis co-culture system (angiogenesis kit, TCS Biologicals), tubule formation
Type: cell-based
Settings: 11 days co-culture; PECAM-1 staining; Egr-1 DNA 0.5-2.5 μg per well, VEGF protein 2 ng/ml, suramin 20 μM
Procedure: Egr-1 under the control of the hCMV promoter (Houston et al, Arterioscler. Thromb. Vasc. Biol., 19; 281-289, 1999) was transfected into a human cell co-culture system designed to measure angiogenesis in vitro. The angiogenesis kit (TCS Biologicals) was used as described according to the manufacturer's instructions using VEGF protein (2 ng/ml) and suramin (20 μM) as positive and negative controls respectively for angiogenesis.
Optimisation of transfection in the co-culture system was performed using pGL3 control luciferase (Promega) with 1.0 μg and 0.5 μg CMV-β gal as a normalising plasmid for transfection control. Two ratios of lipid: DNA (v/w) were used; 2:1 and 4:1 (FIG. 3a.). CMV Egr-1 DNA was transfected at 0.5, 1.0, 1.5 and 2.5 μg per well in triplicate in a 24 well microtitre plate using Mirus Transit reagent (Cambridge Biosciences) at a ratio of 2:1 v/w DNA. VEGF protein positive control and suramin negative control was added to triplicate wells. After 11 days co-culture angiogenesis was determined by staining of cells for the endothelial cell marker PECAM-1 and visualisation using BCIP/NBT substrate.
Representative images of tubule formation using all four doses of Egr-1 expression plasmid together with VEGF (positive control) and suramin (negative control) were captured and processed by image analysis using Quantimet 600 image analyser and associated software. […]

Cc1ccc(C(=O)Nc2ccc(S(=O)(=O)O)c3cc(S(=O)(=O)O)cc(S(=O)(=O)O)c23)cc1NC(=O)c1cccc(NC(=O)Nc2cccc(C(=O)Nc3cc(C(=O)Nc4ccc(S(=O)(=O)O)c5cc(S(=O)(=O)O)cc(S(=O)(=O)O)c45)ccc3C)c2)c1 [suramin]
tubule formation: Decreased tubule formation
